Results: US6372776B1, “Crystalline(−)-3R,4R-trans-7-methoxy-2,2-dimethyl-3-phenyl-4-{4-[2-(pyrrolidin-1-yl)ethoxy]phenyl}chromane, hydrogen maleate” (Novo Nordisk A/S, priority 1997, dated 2002)

Legend:
solubility in water = format: physicochemical
[1] = stability characteristics
hygroscopicity = format: physicochemical

Compound	solubility in water (solubility in water)	bioavailability (bioavailability)	stability characteristics [1]	hygroscopicity (hygroscopicity)
COc1ccc2c(c1)OC(C)(C)C(c1ccccc1)[C@@H]2c1ccc(OCCN2CCCC2)cc1 (single isomer, unassigned; (-)) [free base, (−)-3R,4R-trans-7-methoxy-2,2-dimethyl-3-phenyl-4-{4-[2-(pyrrolidin-1-yl)ethoxy]phenyl}chromane]	very poor			
(−)-3R,4R-trans-7-methoxy-2,2-dimethyl-3-phenyl-4-{4-[2-(pyrrolidin-1-yl)ethoxy]phenyl}chromane, hydrogen maleate [hydrogen maleate salt]		good	good	non-hygroscopic
